The record followed here is patent publication US9861099B2, “Composition for enhancing plant disease control effect of monosaccharide” (MITSUI CHEMICALS AGRO, INC., priority 2013, dated 2018).

Holding throughout (type): in vivo
One assay relates to Magnaporthe grisea. Conditions: Table 9: monosaccharide 10% liquid preparation, no assistant, 10-fold dilution (monosaccharide 1%).
A further assay has as its system Botrytis cinerea. The assay can be described thus: Tomato gray mold (GM) control test. The note with it: Table 9: monosaccharide 10% liquid preparation, no assistant, 10-fold dilution (monosaccharide 1%). Here is the method: (GM: Gray Mold) Test plants (tomato variety: Oogata Fukuju) were planted followed by cultivating until three first leaves appeared. In the test, dilutions (5 ml/pot) obtained by diluting with distilled water so that each formula reached a prescribed concentration were sprayed. After inoculating the seedlings one day after spraying by spraying with 1×10^7 organisms/ml of conidia of Botrytis cinerea, the seedlings were allowed to stand for about 48 hours in an inoculation room at a room temperature of 20° C. to 23° C. to promote the onset of disease. Disease development was investigated 2 days after inoculation, and the effects thereof were evaluated. Disease development was evaluated using the following indicators for disease control tests evaluated according to the methods described above. Furthermore, preventive values were calculated based on the disease development.

The subject of another assay is Phytophthora infestans. Conditions: Table 9: monosaccharide 10% liquid preparation, no assistant, 10-fold dilution (monosaccharide 1%).
The subject of assay [1] is Rhizoctonia solani AGI-IA. The assay can be described thus: Rice sheath blight (SB) control test. The note with it: Table 9: monosaccharide 10% liquid preparation, no assistant, 10-fold dilution (monosaccharide 1%). Here is the method: (SB: Sheath Blight) Test plants (rice variety: Sachikaze) were planted followed by cultivating until the third leaf appeared. In the test, dilutions (5 ml/pot) obtained by diluting with distilled water so that each formula reached a prescribed concentration were sprayed. After inoculating the seedlings one day after spraying with clumps of Rhizoctonia solani AGI-IA cultured for 14 days in oat medium, the seedlings were allowed to stand for about 24 hours in an inoculation room at a room temperature of 28° C. to promote the onset of disease. Disease development was investigated 14 days after inoculation, and the effects thereof were evaluated. Disease development was evaluated using the following indicators for disease control tests evaluated according to the methods described above. Furthermore, preventive values were calculated based on the disease development.

The subject of a further assay is Sphaerotheca cucurbitae. The assay can be described thus: Cucumber powdery mildew (CPM) control test. The note with it: Table 9: monosaccharide 10% liquid preparation, no assistant, 10-fold dilution (monosaccharide 1%).
The test system of the next assay is Venturia inaequalis. In words: Apple scab (AS) control test. The note with it: Table 9: monosaccharide 10% liquid preparation, no assistant, 10-fold dilution (monosaccharide 1%). Here is the method:
(AS: Apple Scab) Test plants (apple variety: Ohrin) were planted followed by cultivating until four first leaves appeared. In the test, dilutions (5 ml/pot) obtained by diluting with distilled water so that each formula reached a prescribed concentration were sprayed. After inoculating the seedlings one day after spraying by spraying with 1×10^5 organisms/ml of conidia of Venturia inaequalis, the seedlings were allowed to stand for about 24 hours in an inoculation room at a room temperature of 18° C. to 20° C. to promote the onset of disease. Disease development was investigated 10 days after inoculation, and the effects thereof were evaluated. Disease development was evaluated using the following indicators for disease control tests evaluated according to the methods described above. Furthermore, preventive values were calculated based on the disease development.

The test system of another assay is Plasmopara viticola. In words: Grape vine downy mildew (VDM) control test. Conditions: Table 9: monosaccharide 10% liquid preparation, no assistant, 10-fold dilution (monosaccharide 1%).
The test system of assay [2] is Pseudoperonospora cubensis. The assay can be described thus: Cucumber downy mildew (CDM) control test. The note with it: Table 8: D-tagatose liquid preparation with assistant (5 parts), 10-fold dilution (D-tagatose 0.5%+assistant 0.5%); improvement vs D-tagatose only.
Another assay relates to Ralstonia solanacearum. Conditions: Table 9: monosaccharide 10% liquid preparation, no assistant, 10-fold dilution (monosaccharide 1%).

Turning to `OC[C@H]1OC(O)[C@H](O)[C@H](O)[C@@H]1O` (stereo partly drawn) [D-allose], in the assay with Magnaporthe grisea, the “preventive value B” value is “(40)”. The “preventive value GM” value in the assay with Botrytis cinerea is “(33)”. In addition, the “preventive value LB” value in the assay with Phytophthora infestans is given as “(60)”. Besides, the “preventive value SB” value in [1] is given as “(60)”. The “preventive value CPM” value in the assay with Sphaerotheca cucurbitae was “(17)”. For the same compound, the “preventive value AS” value with Venturia inaequalis is “(66)”. Also, the “preventive value VDM” value in the assay on Plasmopara viticola is “(40)”.

Consider `O=C[C@H](O)[C@@H](O)[C@@H](O)[C@H](O)CO` [D-galactose], for which, in assay [2], the “Evaluation Score CDM” value is 1 (Improvement in preventive value of 1 to less than 10). Moreover, in the assay on Magnaporthe grisea, the “preventive value B” value is on record as “(17)”. Besides, in the assay with Botrytis cinerea, the “preventive value GM” value is on record as “(33)”. In addition, in the assay on Phytophthora infestans, the “preventive value LB” value is given as “(0)”. Moreover, in assay [1], the “preventive value SB” value is recorded as “(60)”. Also, the “preventive value CPM” value with Sphaerotheca cucurbitae was “(0)”. Further, the “preventive value AS” value in the assay with Venturia inaequalis is reported as “(66)”. Besides, the “preventive value VDM” value in the assay on Plasmopara viticola is given as “(0)”. In addition, in the assay on Ralstonia solanacearum, the “preventive value TBW” value was “(25)”.

For the compound `O=C(CO)[C@H](O)[C@H](O)[C@H](O)CO` [D-psicose], the “Evaluation Score CDM” value in assay [2] is recorded as 3 (Improvement in preventive value of 20 to less than 30). Also, the “preventive value B” value with Magnaporthe grisea is given as “(50)”. Moreover, the “preventive value GM” value in the assay with Botrytis cinerea is listed as “(50)”. Further, the “preventive value LB” value in the assay on Phytophthora infestans was “(47)”. In addition, the “preventive value SB” value in assay [1] was “(40)”. In addition, the “preventive value CPM” value with Sphaerotheca cucurbitae is on record as “(17)”. Besides, the “preventive value AS” value with Venturia inaequalis is “(50)”. Besides, in the assay with Plasmopara viticola, the “preventive value VDM” value was “(0)”.

For the compound `O=C(CO)[C@H](O)[C@@H](O)[C@H](O)CO` [D-sorbose], the “Evaluation Score CDM” value in [2] is on record as 2 (Improvement in preventive value of 10 to less than 20). Also, the “preventive value B” value in the assay with Magnaporthe grisea was “(17)”. Moreover, the “preventive value GM” value in the assay with Botrytis cinerea is on record as “(33)”. Also, in the assay on Phytophthora infestans, the “preventive value LB” value is reported as “(33)”. Moreover, in [1], the “preventive value SB” value is “(40)”. The “preventive value CPM” value in the assay with Sphaerotheca cucurbitae is “(17)”. The “preventive value AS” value in the assay on Venturia inaequalis was “(33)”. For the same compound, in the assay with Plasmopara viticola, the “preventive value VDM” value is reported as “(0)”.

For `O=C(CO)[C@H](O)[C@@H](O)[C@@H](O)CO` [L-fructose], the “preventive value B” value in the assay on Magnaporthe grisea was “(0)”. Besides, in the assay on Botrytis cinerea, the “preventive value GM” value is on record as “(40)”. Besides, in assay [1], the “preventive value SB” value was “(60)”. Also, the “preventive value CPM” value in the assay with Sphaerotheca cucurbitae was “(33)”. In addition, the “preventive value VDM” value in the assay with Plasmopara viticola is “(0)”.
